Source: patent US20260125378A2, “Heterocyclic Compounds” (BeOne Medicines I GmbH, priority 2023, published 2026)

Legend:
[1] = molecular target: T1, Full length DGKζ (in-house protein M1-V929) (Homo sapiens, UniProt Q13574); assay: Biochemical DGK IC50 assay (ADP-Glo, lipid micelle substrate), DGKζ; conditions: 1 hour preincubation, 1 hour reaction, room temperature
T1 construct: His (N); TEV site (N); made in house; host or cells: Sf9 insect cells (Bac-to-Bac baculovirus)
Method in brief: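 Enzyme: full-length human DGKζ M1-V929, produced in baculovirus-infected Sf9 cells; substrate DAG/PS micelles. Buffer 50 mM HEPES, 10 mM MgCl2, 0.01 mM CaCl2, 0.1 mM Na3VO4.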

[2] = molecular target: T2, Full length DGKα (D21-10BG, SignalChem) (Homo sapiens, UniProt P23743); assay: Biochemical DGK IC50 assay (ADP-Glo, lipid micelle substrate), DGKα; conditions: 1 hour preincubation, 1 hour reaction, room temperature
T2 construct: Full length DGKα (D21-10BG, SignalChem); purchased SignalChem D21-10BG
Method in brief: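 ADP-Glo luminescence quantified ADP produced after a 1 h room-temperature reaction of full-length DGKα on DAG/PS micelles, in HEPES buffer containing MgCl2, CaCl2, vanadate, BSA and Tween-20. IC50 values derive from activity inhibition over a compound concentration series.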

T1 sequence (Q13574 1-929 isoform Q13574-4): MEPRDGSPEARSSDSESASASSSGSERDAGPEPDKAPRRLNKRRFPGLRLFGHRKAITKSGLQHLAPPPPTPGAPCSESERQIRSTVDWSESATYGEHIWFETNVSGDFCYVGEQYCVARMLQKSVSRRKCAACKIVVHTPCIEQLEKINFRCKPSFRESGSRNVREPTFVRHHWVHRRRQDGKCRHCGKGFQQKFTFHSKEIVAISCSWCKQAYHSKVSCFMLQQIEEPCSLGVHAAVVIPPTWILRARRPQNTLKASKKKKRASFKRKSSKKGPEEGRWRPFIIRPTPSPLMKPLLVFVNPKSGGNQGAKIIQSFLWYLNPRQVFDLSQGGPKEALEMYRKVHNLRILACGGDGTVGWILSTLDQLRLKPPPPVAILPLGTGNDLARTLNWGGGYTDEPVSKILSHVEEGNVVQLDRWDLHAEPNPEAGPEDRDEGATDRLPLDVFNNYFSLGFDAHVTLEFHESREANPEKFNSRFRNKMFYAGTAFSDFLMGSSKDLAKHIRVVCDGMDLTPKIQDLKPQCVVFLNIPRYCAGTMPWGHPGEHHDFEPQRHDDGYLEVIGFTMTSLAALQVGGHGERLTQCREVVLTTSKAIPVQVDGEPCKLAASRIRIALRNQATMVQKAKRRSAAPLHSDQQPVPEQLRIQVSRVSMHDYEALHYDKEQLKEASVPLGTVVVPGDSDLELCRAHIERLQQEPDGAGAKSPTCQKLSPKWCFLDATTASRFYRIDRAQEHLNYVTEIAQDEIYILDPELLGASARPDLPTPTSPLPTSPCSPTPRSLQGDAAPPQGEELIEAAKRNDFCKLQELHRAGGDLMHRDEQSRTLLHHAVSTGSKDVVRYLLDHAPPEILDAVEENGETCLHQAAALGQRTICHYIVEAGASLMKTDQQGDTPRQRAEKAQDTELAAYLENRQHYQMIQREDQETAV
T2 sequence (P23743 whole entry): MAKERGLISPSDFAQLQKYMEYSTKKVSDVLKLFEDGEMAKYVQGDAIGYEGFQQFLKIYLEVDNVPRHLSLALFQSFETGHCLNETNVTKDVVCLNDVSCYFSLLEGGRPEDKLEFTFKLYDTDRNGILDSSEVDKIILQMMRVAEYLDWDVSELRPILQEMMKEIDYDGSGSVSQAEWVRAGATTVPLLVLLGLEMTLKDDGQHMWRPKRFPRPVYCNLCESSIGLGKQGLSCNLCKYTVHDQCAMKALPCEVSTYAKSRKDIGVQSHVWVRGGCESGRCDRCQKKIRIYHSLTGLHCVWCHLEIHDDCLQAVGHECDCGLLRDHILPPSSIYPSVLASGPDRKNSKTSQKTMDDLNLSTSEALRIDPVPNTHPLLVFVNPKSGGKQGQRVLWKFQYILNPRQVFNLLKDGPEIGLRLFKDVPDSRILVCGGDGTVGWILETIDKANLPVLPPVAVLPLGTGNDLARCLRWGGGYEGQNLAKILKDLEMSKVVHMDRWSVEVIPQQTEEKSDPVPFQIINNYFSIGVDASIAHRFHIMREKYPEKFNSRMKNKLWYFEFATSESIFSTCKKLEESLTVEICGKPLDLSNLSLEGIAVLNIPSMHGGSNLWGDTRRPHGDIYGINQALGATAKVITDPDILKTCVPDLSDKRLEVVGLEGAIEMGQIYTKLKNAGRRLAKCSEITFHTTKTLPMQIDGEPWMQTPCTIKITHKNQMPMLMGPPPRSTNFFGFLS

Row | IC50 [1] [µM] | IC50 [2] [µM] | Structure (SMILES)
1 | 0.016 | 9.7 | CC(c1cccc(C(F)(F)F)c1)N1C[C@H](C)N(c2nc(=O)n(C)c3c2nc(CC#N)n3C)C[C@H]1C (stereo partly drawn) [Compound A41, 2-(6-((2S,5R)-2,5-dimethyl-4-(1-(3-(trifluoromethyl)phenyl)ethyl)piperazin-1-yl)-3,9-dimethyl-2-oxo-3,9-dihydro-2H-purin-8-yl)acetonitrile]
2 | 0.034 | > 150 | CCn1c(CC#N)nc2c(N3C[C@@H](C)N(C(C)c4cc(F)c5c(c4)OC(C)(C)O5)C[C@@H]3C)c(F)c(=O)n(C)c21 (stereo partly drawn) [Compound A189, 2-(3-ethyl-6-fluoro-7-((2S,5R)-4-(1-(7-fluoro-2,2-dimethylbenzo[d][1,3]dioxol-5-yl)ethyl)-2,5-dimethylpiperazin-1-yl)-4-methyl-5-oxo-4,5-dihydro-3H-imidazo[4,5-b]pyridin-2-yl)acetonitrile]
3 | 4.82 | > 150 | CCn1c(CC#N)nc2c(N3C[C@@H](C)N(C(C)c4cccc(C(F)(F)F)n4)C[C@@H]3C)nc(=O)n(C)c21 (single isomer, unassigned) [Compound A118a]
4 | 0.0033 | 72.5 | CCn1c(CC#N)nc2c(N3C[C@@H](C)N(C(C)c4ccc5c(c4)OC(C)(C)CO5)C[C@@H]3C)nc(=O)n(C)c21 (single isomer, unassigned) [Compound A60a]
5 | 0.037 | 1.62 | CC[C@H]1CN(C(C)c2ccc(C(F)(F)F)cc2)[C@H](CC)CN1c1nc(=O)n(C)c2c1nc(CC#N)n2C (single isomer, unassigned) [Compound A149a]
6 | 0.878 | 5.77 | Cc1ccc(C(C)N2C[C@H](C)N(c3cc(=O)n(C)c4c3nc(CC#N)n4C)C[C@H]2C)cc1 (single isomer, unassigned) [Compound A5a]
7 | 0.123 | > 150 | CCn1c(CC#N)nc2c(N3C[C@@H](C)N(C(C)c4ccc5ccn(C)c(=O)c5c4)C[C@@H]3C)nc(=O)n(C)c21 (stereo partly drawn) [Compound A92, 2-(6-((2S,5R)-2,5-dimethyl-4-(1-(2-methyl-1-oxo-1,2-dihydroisoquinolin-7-yl)ethyl)piperazin-1-yl)-9-ethyl-3-methyl-2-oxo-3,9-dihydro-2H-purin-8-yl)acetonitrile]
8 | 0.414 | > 150 | CCn1c(CC#N)nc2c(N3C[C@@H](C)N(C(C)c4ccc5c(c4)C(=O)N(C)CC5)C[C@@H]3C)nc(=O)n(C)c21 (stereo partly drawn) [Compound A93, 2-(6-((2S,5R)-2,5-dimethyl-4-(1-(2-methyl-1-oxo-1,2,3,4-tetrahydroisoquinolin-7-yl)ethyl)piperazin-1-yl)-9-ethyl-3-methyl-2-oxo-3,9-dihydro-2H-purin-8-yl)acetonitrile]
9 | 0.569 | > 10 | COCc1cc(F)ccc1C(C)N1C[C@H](C)N(c2nc(=O)n(C)c3c2nc(CC#N)n3C)C[C@H]1C (single isomer, unassigned) [Compound A27a]
10 | 0.045 | > 150 | CCn1c(CC#N)nc2c(N3C[C@@H](C)N(C(C)c4ccc5c(n4)OC(C)(C)CO5)C[C@@H]3C)nc(=O)n(C)c21 (stereo partly drawn) [Compound A74, 2-(6-((2S,5R)-4-(1-(3,3-dimethyl-2,3-dihydro-[1,4]dioxino[2,3-b]pyridin-6-yl)ethyl)-2,5-dimethylpiperazin-1-yl)-9-ethyl-3-methyl-2-oxo-3,9-dihydro-2H-purin-8-yl)acetonitrile]
11 | 0.199 | 72.8 | CC(c1cc(F)c2c(c1)OC(C)(C)CO2)N1C[C@H](C)N(c2nc(=O)n(C)c3c2nc(CC#N)n3C)C[C@H]1C (single isomer, unassigned) [Compound A68b]
12 | 0.17 | 132 | CCn1c(CC#N)nc2c(N3C[C@@H](C)N(C(C)c4ccc5c(c4Cl)OC(C)(C)O5)C[C@@H]3C)nc(=O)n(C)c21 (single isomer, unassigned) [Compound A172a]
13 | 0.301 | > 150 | CCn1c(CC#N)nc2c(N3C[C@@H](C)N(C(C)c4cccc(OC)c4)C[C@@H]3C)nc(=O)n(C)c21 (stereo partly drawn) [Compound A46, 2-(9-ethyl-6-((2S,5R)-4-(1-(3-methoxyphenyl)ethyl)-2,5-dimethylpiperazin-1-yl)-3-methyl-2-oxo-3,9-dihydro-2H-purin-8-yl)acetonitrile]
14 | 0.133 | 1.46 | Cc1cccc(C(C)N2C[C@H](C)N(c3c(F)c(=O)n(C)c4c3nc(CC#N)n4C)C[C@H]2C)c1C(F)(F)F (single isomer, unassigned) [Compound A17a]
15 | 0.024 | 71.8 | CCn1c(CC#N)nc2c(N3C[C@@H](C)N(C(C)c4nc5c(cc4F)OCC(C)(C)O5)C[C@@H]3C)nc(=O)n(C)c21 (single isomer, unassigned) [Compound A161a]
16 | 0.949 | > 150 | CCn1c(CC#N)nc2c(N3C[C@@H](C)N(C(C)c4ccc(C)c(C)n4)C[C@@H]3C)nc(=O)n(C)c21 (stereo partly drawn) [Compound A138, 2-(6-((2S,5R)-4-(1-(5,6-dimethylpyridin-2-yl)ethyl)-2,5-dimethylpiperazin-1-yl)-9-ethyl-3-methyl-2-oxo-3,9-dihydro-2H-purin-8-yl)acetonitrile]
17 | 0.211 | > 150 | CCn1c(CC#N)nc2c(N3C[C@@H](C)N(C(C)c4ccc(OC)c(C(C)(F)F)c4)C[C@@H]3C)nc(=O)n(C)c21 (stereo partly drawn) [Compound A39, 2-(6-((2S,5R)-4-(1-(3-(1,1-difluoroethyl)-4-methoxyphenyl)ethyl)-2,5-dimethylpiperazin-1-yl)-9-ethyl-3-methyl-2-oxo-3,9-dihydro-2H-purin-8-yl)acetonitrile]
18 | 0.01 | 31.7 | CCn1c(CC#N)nc2c(N3C[C@@H](C)N(C(C)c4ccc5c(c4)OC4(CCC4)O5)C[C@@H]3C)nc(=O)n(C)c21 (single isomer, unassigned) [Compound A169a]
19 | 0.015 | 0.308 | CC[C@H]1CN(C(C)c2ccc(C(F)(F)F)cc2)[C@H](CC)CN1c1nc(=O)n(C)c2c1nc(CC#N)n2C (single isomer, unassigned) [Compound A149b]
20 | 0.003 | > 10 | CC(c1ccc(F)cc1C(F)(F)F)N1C[C@H](C)N(c2nc(=O)n(C)c3c2nc(CC#N)n3C)C[C@H]1C (single isomer, unassigned) [Compound A33b]
21 | 0.005 | 22.2 | CCn1c(CC#N)nc2c(N3C[C@@H](C)N(C(C)c4ccc5c(c4F)OC(C)(C)O5)C[C@@H]3C)nc(=O)n(C)c21 (stereo partly drawn) [Compound A175, 2-(9-ethyl-6-((2S,5R)-4-(1-(4-fluoro-2,2-dimethylbenzo[d][1,3]dioxol-5-yl)ethyl)-2,5-dimethylpiperazin-1-yl)-3-methyl-2-oxo-3,9-dihydro-2H-purin-8-yl)acetonitrile]
22 | 0.524 | > 150 | CCn1c(CC#N)nc2c(N3C[C@@H](C)N(C(C)c4ccnc5c4OCCC5(F)F)C[C@@H]3C)nc(=O)n(C)c21 (single isomer, unassigned) [Compound A103a]
23 | 0.004 | 111 | CCCn1c(CC#N)nc2c(N3C[C@@H](C)N(C(C)c4ccc5c(c4)OC(C)(C)CO5)C[C@@H]3C)nc(=O)n(C)c21 (stereo partly drawn) [Compound A88, 2-(6-((2S,5R)-4-(1-(3,3-dimethyl-2,3-dihydrobenzo[b][1,4]dioxin-6-yl)ethyl)-2,5-dimethylpiperazin-1-yl)-3-methyl-2-oxo-9-propyl-3,9-dihydro-2H-purin-8-yl)acetonitrile]
24 | 0.407 | 115 | CCn1c(CC#N)nc2c(N3C[C@@H](C)N(C(C)c4cccc5c4OC(F)(F)O5)C[C@@H]3C)nc(=O)n(C)c21 (stereo partly drawn) [Compound A187, 2-(6-((2S,5R)-4-(1-(2,2-difluorobenzo[d][1,3]dioxol-4-yl)ethyl)-2,5-dimethylpiperazin-1-yl)-9-ethyl-3-methyl-2-oxo-3,9-dihydro-2H-purin-8-yl)acetonitrile]
25 | 0.639 | > 150 | CCn1c(CC#N)nc2c(N3C[C@@H](C)N(C(C)c4cc5c(cc4Cl)OCC(C)(C)O5)C[C@@H]3C)nc(=O)n(C)c21 (stereo partly drawn) [Compound A73, 2-(6-((2S,5R)-4-(1-(7-chloro-3,3-dimethyl-2,3-dihydrobenzo[b][1,4]dioxin-6-yl)ethyl)-2,5-dimethylpiperazin-1-yl)-9-ethyl-3-methyl-2-oxo-3,9-dihydro-2H-purin-8-yl)acetonitrile]
26 | 0.002 | 21.9 | CC(c1ccc2c(c1)OC(C)(C)CO2)N1C[C@H](C)N(c2nc(=O)n(C)c3c2nc(CC#N)n3CC(F)F)C[C@H]1C (stereo partly drawn) [Compound A87, 2-(9-(2,2-difluoroethyl)-6-((2S,5R)-4-(1-(3,3-dimethyl-2,3-dihydrobenzo[b][1,4]dioxin-6-yl)ethyl)-2,5-dimethylpiperazin-1-yl)-3-methyl-2-oxo-3,9-dihydro-2H-purin-8-yl)acetonitrile]
27 | 0.228 | > 150 | CCn1c(CC#N)nc2c(N3C[C@@H](C)N(C(C)c4ccc(C)cc4C(F)(F)F)C[C@@H]3C)nc(=O)n(C)c21 (single isomer, unassigned) [Compound A116b]
28 | 0.005 | 14.3 | CC(c1ccc2c(c1)OC(C)(C)O2)N1C[C@H](C)N(c2nc(=O)n(C)c3c2nc(CC#N)n3C)C[C@H]1C (single isomer, unassigned) [Compound A98a]
29 | 0.037 | > 150 | CCn1c(CC#N)nc2c(N3C[C@@H](C)N(C(C)c4ccc5ncc(C(F)(F)F)nc5c4)C[C@@H]3C)nc(=O)n(C)c21 (stereo partly drawn) [Compound A54, 2-(6-((2S,5R)-2,5-dimethyl-4-(1-(3-(trifluoromethyl)quinoxalin-6-yl)ethyl)piperazin-1-yl)-9-ethyl-3-methyl-2-oxo-3,9-dihydro-2H-purin-8-yl)acetonitrile]
